Data published in patent US9540343B2 (Gilead Sciences, Inc., priority 2011, dated 2017).

What was measured:
HIV-IIIb = experiment: Test A: Antiviral assay in MT4 cells; format: cell-based, HIV-1; details: Human immunodeficiency virus 1, IIIB, MT4, 120 h, read-out: % inhibition at 2 μM, percent inhibition of virus-induced cell killing, from dose response curve at 2 uM drug; MT-4 cells infected with HIV-IIIb, 5 days, CellTiter-Glo
in vitro = experiment: in vitro
Method in brief: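 Cytoprotection read-out: CellTiter-Glo chemiluminescence after 5 days at 37 °C of HIV-IIIb-infected MT-4 cells (m.o.i. 0.003) with compound in 10-point 3-fold dilutions, quadruplicate, 10% FBS. Cytotoxicity (CC50) measured identically without virus.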

[1] = human, uninfected MT-4 cells, CC50 (nM), same protocol as Test A, CellTiter-Glo

Structure (SMILES): NCc1ccc2[nH]cc(CC(=O)N[C@@H](Cc3cc(F)cc(F)c3)c3ncccc3-c3cccc(C(N)=O)c3)c2c1 [Example 556, (S)-3-(2-(1-(2-(5-(aminomethyl)-1H-indol-3-yl)acetamido)-2-(3,5-difluorophenyl)ethyl)pyridin-3-yl)benzamide]
- inhibition at 2 µM (HIV-IIIb): 83%
- CC50 at 5 days (in vitro; [1]): 47800 nM

Structure (SMILES): CC(C)(C)OC(=O)NCc1ccc2[nH]cc(CC(=O)N[C@@H](Cc3cc(F)cc(F)c3)c3ncccc3-c3ccc(Cl)cc3)c2c1 [Example 557, (S)-tert-butyl (3-(2-(1-(3-(4-chlorophenyl)pyridin-2-yl)-2-(3,5-difluorophenyl)ethylamino)-2-oxoethyl)-1H-indol-5-yl)methylcarbamate]
- inhibition at 2 µM (HIV-IIIb): 73%
- CC50 at 5 days (in vitro; [1]): 7860 nM

Structure (SMILES): O=C(Cn1nc(C(F)F)c2c1C(F)(F)CCC2(F)F)N[C@@H](Cc1cc(F)cc(F)c1)c1ncccc1-c1ccc2cc[nH]c(=O)c2c1 [Example 559D, (S)-2-(3-(difluoromethyl)-4,4,7,7-tetrafluoro-4,5,6,7-tetrahydro-1H-indazol-1-yl)-N-(2-(3,5-difluorophenyl)-1-(3-(1-oxo-1,2-dihydroisoquinolin-7-yl)pyridin-2-yl)ethyl)acetamide]
- inhibition at 2 µM (HIV-IIIb): 96%
- CC50 at 5 days (in vitro; [1]): 23100 nM

Structure (SMILES): NC(=O)c1cccc(-c2cccnc2[C@H](Cc2cc(F)cc(F)c2)NC(=O)Cc2c[nH]c3ccc(N)cc23)c1 [Example 560, (S)-3-(2-(1-(2-(5-amino-1H-indol-3-yl)acetamido)-2-(3,5-difluorophenyl)ethyl)pyridin-3-yl)benzamide]
- inhibition at 2 µM (HIV-IIIb): 112%
- CC50 at 5 days (in vitro; [1]): > 53000 nM

Structure (SMILES): NC(=O)c1cc(-c2cccnc2[C@H](Cc2cc(F)cc(F)c2)NC(=O)Cn2nc(C(F)(F)F)c3c2C(=O)C2CC32)ccc1F (stereo partly drawn) [Example 561B, 5-(2-((1S)-2-(3,5-difluorophenyl)-1-(2-(5-oxo-3-(trifluoromethyl)-3b,4,4a,5-tetrahydro-1H-cyclopropa[3,4]cyclopenta[1,2-c]pyrazol-1-yl)acetamido)ethyl)pyridin-3-yl)-2-fluorobenzamide]
- inhibition at 2 µM (HIV-IIIb): 8%
- CC50 at 5 days (in vitro; [1]): 29000 nM

Structure (SMILES): NC(=O)c1cc(-c2cccnc2[C@H](Cc2cc(F)cc(F)c2)NC(=O)Cn2c3c(c4ccccc42)CCCC3)ccc1F [Example 563, (S)-5-(2-(2-(3,5-difluorophenyl)-1-(2-(3,4-dihydro-1H-carbazol-9(2H)-yl)acetamido)ethyl)pyridin-3-yl)-2-fluorobenzamide]
- inhibition at 2 µM (HIV-IIIb): 62%
- CC50 at 5 days (in vitro; [1]): 27000 nM

Structure (SMILES): Cc1cc2ncn(CC(=O)N[C@@H](Cc3cc(F)cc(F)c3)c3ncccc3-c3ccc(F)c(C(N)=O)c3)c2cc1C [Example 564, (S)-5-(2-(2-(3,5-difluorophenyl)-1-(2-(5,6-dimethyl-1H-benzo[d]imidazol-1-yl)acetamido)ethyl)pyridin-3-yl)-2-fluorobenzamide]
- inhibition at 2 µM (HIV-IIIb): 100%
- CC50 at 5 days (in vitro; [1]): 10300 nM

Structure (SMILES): NC(=O)c1cc(-c2cccnc2[C@H](Cc2cc(F)cc(F)c2)NC(=O)Cn2c(=O)n(C3=CCCCC3)c3ccccc32)ccc1F [Example 567, (S)-5-(2-(1-(2-(3-cyclohexenyl-2-oxo-2,3-dihydro-1H-benzo[d]imidazol-1-yl)acetamido)-2-(3,5-difluorophenyl)ethyl)pyridin-3-yl)-2-fluorobenzamide]
- inhibition at 2 µM (HIV-IIIb): 11%
- CC50 at 5 days (in vitro; [1]): 15800 nM

Structure (SMILES): NC(=O)c1cc(-c2cccnc2[C@H](Cc2cc(F)cc(F)c2)NC(=O)Cn2ccc3cc(F)c(Cl)cc32)ccc1F [Example 568, (S)-5-(2-(1-(2-(6-chloro-5-fluoro-1H-indol-1-yl)acetamido)-2-(3,5-difluorophenyl)ethyl)pyridin-3-yl)-2-fluorobenzamide]
- inhibition at 2 µM (HIV-IIIb): 42%
- CC50 at 5 days (in vitro; [1]): 11400 nM

Structure (SMILES): NC(=O)c1cccc(-c2cccnc2[C@H](Cc2cc(F)cc(F)c2)NC(=O)Cc2ccccn2)c1 [Example 569, (S)-3-(2-(2-(3,5-difluorophenyl)-1-(2-(pyridin-2-yl)acetamido)ethyl)pyridin-3-yl)benzamide]
- inhibition at 2 µM (HIV-IIIb): 11%
- CC50 at 5 days (in vitro; [1]): > 53000 nM

Structure (SMILES): NC(=O)c1cc(-c2cccnc2[C@H](Cc2cc(F)cc(F)c2)NC(=O)Cn2cc(C(F)(F)F)cn2)ccc1F [Example 570, (S)-5-(2-(2-(3,5-difluorophenyl)-1-(2-(4-(trifluoromethyl)-1H-pyrazol-1-yl)acetamido)ethyl)pyridin-3-yl)-2-fluorobenzamide]
- inhibition at 2 µM (HIV-IIIb): 5%
- CC50 at 5 days (in vitro; [1]): > 53200 nM

Structure (SMILES): NC(=O)c1cc(-c2cccnc2[C@H](Cc2cc(F)cc(F)c2)NC(=O)Cn2c3c(c4ccccc42)C(=O)CCC3)ccc1F [Example 574D, (S)-5-(2-(2-(3,5-difluorophenyl)-1-(2-(4-oxo-3,4-dihydro-1H-carbazol-9(2H)-yl)acetamido)ethyl)pyridin-3-yl)-2-fluorobenzamide]
- inhibition at 2 µM (HIV-IIIb): 24%
- CC50 at 5 days (in vitro; human, CC50 (nM), uninfected MT-4 cells, same protocol as Test A, CellTiter-Glo): 52500 nM

Structure (SMILES): Cc1cc2cc(F)ccc2n1CC(=O)N[C@@H](Cc1cc(F)cc(F)c1)c1ncccc1-c1cccc(C(N)=O)c1 [Example 575B, (S)-3-(2-(2-(3,5-difluorophenyl)-1-(2-(5-fluoro-2-methyl-1H-indol-1-yl)acetamido)ethyl)pyridin-3-yl)benzamide]
- inhibition at 2 µM (HIV-IIIb): 14%
- CC50 at 5 days (in vitro; [1]): 17400 nM

Structure (SMILES): COC1CN(C(=O)c2cc(C(C)C)n(CC(=O)N[C@@H](Cc3cc(F)cc(F)c3)c3ncccc3-c3ccc(F)c(C(N)=O)c3)n2)C1 [Example 576B, (S)-5-(2-(2-(3,5-difluorophenyl)-1-(2-(5-isopropyl-3-(3-methoxyazetidine-1-carbonyl)-1H-pyrazol-1-yl)acetamido)ethyl)pyridin-3-yl)-2-fluorobenzamide]
- inhibition at 2 µM (HIV-IIIb): 2%
- CC50 at 5 days (in vitro; [1]): > 53200 nM

Structure (SMILES): NC(=O)c1cc(-c2cccnc2[C@H](Cc2cc(F)cc(F)c2)NC(=O)Cn2c(CN3CCOCC3)nc3ccccc32)ccc1F [Example 577, (S)-5-(2-(2-(3,5-difluorophenyl)-1-(2-(2-(morpholinomethyl)-1H-benzo[d]imidazol-1-yl)acetamido)ethyl)pyridin-3-yl)-2-fluorobenzamide]
- inhibition at 2 µM (HIV-IIIb): 20%
- CC50 at 5 days (in vitro; [1]): > 53200 nM

Structure (SMILES): NC(=O)c1cc(-c2cccnc2[C@H](Cc2cc(F)cc(F)c2)NC(=O)C(CO)c2ccccc2)ccc1F (stereo partly drawn) [Example 578, 5-(2-((1S)-2-(3,5-difluorophenyl)-1-(3-hydroxy-2-phenylpropanamido)ethyl)pyridin-3-yl)-2-fluorobenzamide]
- inhibition at 2 µM (HIV-IIIb): 15%
- CC50 at 5 days (in vitro; [1]): > 53200 nM

Structure (SMILES): COC1CN(C(=O)Cc2c(C)n(CC(=O)N[C@@H](Cc3cc(F)cc(F)c3)c3ncccc3-c3ccc(F)c(C(N)=O)c3)c3ccccc23)C1 [Example 579D, (S)-5-(2-(2-(3,5-difluorophenyl)-1-(2-(3-(2-(3-methoxyazetidin-1-yl)-2-oxoethyl)-2-methyl-1H-indol-1-yl)acetamido)ethyl)pyridin-3-yl)-2-fluorobenzamide]
- inhibition at 2 µM (HIV-IIIb): 18%
- CC50 at 5 days (in vitro; [1]): > 53200 nM

Structure (SMILES): NS(=O)(=O)c1cc(-c2cccnc2[C@H](Cc2cc(F)cc(F)c2)NC(=O)Cc2c[nH]c3ccc(F)cc23)ccc1F [Example 580F, (S)—N-(2-(3,5-difluorophenyl)-1-(3-(4-fluoro-3-sulfamoylphenyl)pyridin-2-yl)ethyl)-2-(5-fluoro-1H-indol-3-yl)acetamide]
- inhibition at 2 µM (HIV-IIIb): 95%
- CC50 at 5 days (in vitro; [1]): 32600 nM

Structure (SMILES): Cc1cc2cn(CC(=O)N[C@@H](Cc3cc(F)cc(F)c3)c3ncccc3-c3ccc(F)c(C(N)=O)c3)nc2cc1C [Example 583, (S)-5-(2-(2-(3,5-difluorophenyl)-1-(2-(5,6-dimethyl-2H-indazol-2-yl)acetamido)ethyl)pyridin-3-yl)-2-fluorobenzamide]
- inhibition at 2 µM (HIV-IIIb): 28%
- CC50 at 5 days (in vitro; [1]): 23200 nM

Structure (SMILES): NCc1ccc2c(CC(=O)N[C@@H](Cc3cc(F)cc(F)c3)c3ncccc3-c3cccc(C(N)=O)c3)c[nH]c2c1 [Example 584, (S)-3-(2-(1-(2-(6-(aminomethyl)-1H-indol-3-yl)acetamido)-2-(3,5-difluorophenyl)ethyl)pyridin-3-yl)benzamide]
- inhibition at 2 µM (HIV-IIIb): 93%
- CC50 at 5 days (in vitro; [1]): 7250 nM

Structure (SMILES): NC(=O)c1cc(-c2cccnc2[C@H](Cc2cc(F)cc(F)c2)NC(=O)Cn2ccc3cc(Cl)ccc32)ccc1F [Example 585, (S)-5-(2-(1-(2-(5-chloro-1H-indol-1-yl)acetamido)-2-(3,5-difluorophenyl)ethyl)pyridin-3-yl)-2-fluorobenzamide]
- inhibition at 2 µM (HIV-IIIb): 58%
- CC50 at 5 days (in vitro; [1]): 13700 nM

Structure (SMILES): CCC(C(=O)N[C@@H](Cc1cc(F)cc(F)c1)c1ncccc1-c1ccc(F)c(C(N)=O)c1)n1cnc2cc(C)c(C)cc21 (stereo partly drawn) [Example 587C, 5-(2-((1S)-2-(3,5-difluorophenyl)-1-(2-(5,6-dimethyl-1H-benzo[d]imidazol-1-yl)butanamido)ethyl)pyridin-3-yl)-2-fluorobenzamide]
- inhibition at 2 µM (HIV-IIIb): 93%
- CC50 at 5 days (in vitro; [1]): 23000 nM

Structure (SMILES): NC(=O)c1cc(-c2cccnc2[C@H](Cc2cc(F)cc(F)c2)NC(=O)Cn2ncc3ccc(O)cc32)ccc1F [Example 588, (S)-5-(2-(2-(3,5-difluorophenyl)-1-(2-(6-hydroxy-1H-indazol-1-yl)acetamido)ethyl)pyridin-3-yl)-2-fluorobenzamide]
- inhibition at 2 µM (HIV-IIIb): 2%
- CC50 at 5 days (in vitro; [1]): 21500 nM

Structure (SMILES): NC(=O)c1cc(-c2cccnc2[C@H](Cc2cc(F)cc(F)c2)NC(=O)Cn2ccc3ccc(C(F)(F)F)cc32)ccc1F [Example 591, (S)-5-(2-(2-(3,5-difluorophenyl)-1-(2-(6-(trifluoromethyl)-1H-indol-1-yl)acetamido)ethyl)pyridin-3-yl)-2-fluorobenzamide]
- inhibition at 2 µM (HIV-IIIb): 15%
- CC50 at 5 days (in vitro; [1]): 14200 nM

Structure (SMILES): NC(=O)c1cc(-c2cccnc2[C@H](Cc2cc(F)cc(F)c2)NC(=O)Cc2ccccc2)ccc1F [Example 592]
- inhibition at 2 µM (HIV-IIIb): 8%
- CC50 at 5 days (in vitro; [1]): > 53200 nM
